According to patent US11787781B2, “Inhibiting ataxia telangiectasia and RAD3-related protein (ATR)” (Celator Pharmaceuticals, Inc., priority 2016, dated 2023):

Key:
[1] = Loading of ATR inhibitors into TEA-SOS liposomes and liposome characterization; assay type: physicochemical
Method: Sodium sucrose octasulfate (equivalent weight 144.8) is a sodium salt of sucrose derivate in which all hydroxyl groups have formed sulfuric acid esters. Sixty gram of sucrose octasulfate (SOS) sodium salt were dissolved in 150 ml of di water, heated with shaking (swirling) of a 50° C. water bath. The solution was passed through a column packed with sulfonated polystyrene divinylbenzene copolymer cation exchange resin beads (Dowex 50Wx8-100-200 mesh, Dow Chemical Co.). […] The eluent was monitored using a conductivity detector. The SOS fraction was collected corresponding to conductivity peak and immediately titrated with neat triethylamine (TEA) solution to pH 6-6.5. The solution was analyzed for residual sodium by potentiometry using a sodium-sensitive electrode and for SOS concentration using a refractometer. The solution having residual sodium less than 0.25% was diluted with di water to final SOS concentration 1.1 M and then sterile-filtered using Millipore 0.22 μm Steri-Top filter.
Cholesterol (Chol) was purchased from Avanti Polar Lipids, Alabaster, Ala., USA, hydrogenated soy phosphocholine (HSPC) and methoxy-poly(ethylene glycol)-1,2-distearoyl-sn-glyceryl (PEG2000-DSG) were obtained from Lipoid GmbH, Ludwigshafen, Germany.
Chol, HSPC and PEG2000-DSG were co-dissolved in 100% ethanol (200-proof, Sigma cat #: 459828) at a molar ratio of 3:2:0.15 at 65° C. The solution of TEA-SOS (10 times the volume of added ethanol) was mixed with the lipid solution at 60-65° C. and stirred at this temperature until a homogeneous milky suspension of multilamellar vesicles was formed. This suspension was extruded 3 times through 5 stacked polycarbonate track-etched filters (Corning Nuclepore) with the pore size of 100 nm using argon pressure extruder (Lipex Biomembranes) at 60-65° C., and resulting unilamellar liposomes were quickly chilled in ice and then stored at 4-6° C. before use. Concentration of phospholipids was measured by phosphate assay and particle diameter was recorded on a Malvern Nanosizer.
Prior to drug loading, the TEA-SOS gradient was created by removing excess of un-trapped TEA-SOS using gel-chromatography (Sepharose CL-4B, Pharmacia). Osmolarity of liposomes was balanced using 50% dextrose solution. Final dextrose concentration was 15%.
ATR inhibitors were dissolved in 15% dextrose solutions in di water by titration with 1 M HCl and heating at 45° C. and then filtered with 0.2 micron NALGENE 13 mm Syringe Filters. Drug concentration in the solution was detected by HPLC. […]
The liposome-drug mixture was incubated with occasional agitation for 30 minutes at 65° C. The incubation mixture was quickly cooled down and incubated for 10 minutes at 0° C., then allowed to attain ambient temperature. Un-encapsulated drug was removed by gel chromatography on Sephadex G-25 (Amersham Pharmacia) eluted with HBS-6.5 buffer (5 mM 2-(4-(2-hydroxyethyl)-piperazino)-ethylsulfonic acid (HEPES), 144 mM NaCl, pH 6.5). Liposome fractions eluted in the void volume were combined, sterilized by 0.2 micron filtration, and stored at 4-6° C. before use. The liposomes were characterized by lipid concentration, drug concentration, and particle size (Table 2).

ATR/ATRIP(h) = ATR/ATRIP(h) (Homo sapiens (Human), UniProt Q13535); assay: Eurofins ATR/ATRIP HTRF assay, p53 Ser15 phosphorylation; assay type: biochemical; parameters: key to Top / Bottom: % of DMSO positive control activity; conditions: ATP 10 μM
Sequence of ATR/ATRIP(h) (Q13535 whole entry): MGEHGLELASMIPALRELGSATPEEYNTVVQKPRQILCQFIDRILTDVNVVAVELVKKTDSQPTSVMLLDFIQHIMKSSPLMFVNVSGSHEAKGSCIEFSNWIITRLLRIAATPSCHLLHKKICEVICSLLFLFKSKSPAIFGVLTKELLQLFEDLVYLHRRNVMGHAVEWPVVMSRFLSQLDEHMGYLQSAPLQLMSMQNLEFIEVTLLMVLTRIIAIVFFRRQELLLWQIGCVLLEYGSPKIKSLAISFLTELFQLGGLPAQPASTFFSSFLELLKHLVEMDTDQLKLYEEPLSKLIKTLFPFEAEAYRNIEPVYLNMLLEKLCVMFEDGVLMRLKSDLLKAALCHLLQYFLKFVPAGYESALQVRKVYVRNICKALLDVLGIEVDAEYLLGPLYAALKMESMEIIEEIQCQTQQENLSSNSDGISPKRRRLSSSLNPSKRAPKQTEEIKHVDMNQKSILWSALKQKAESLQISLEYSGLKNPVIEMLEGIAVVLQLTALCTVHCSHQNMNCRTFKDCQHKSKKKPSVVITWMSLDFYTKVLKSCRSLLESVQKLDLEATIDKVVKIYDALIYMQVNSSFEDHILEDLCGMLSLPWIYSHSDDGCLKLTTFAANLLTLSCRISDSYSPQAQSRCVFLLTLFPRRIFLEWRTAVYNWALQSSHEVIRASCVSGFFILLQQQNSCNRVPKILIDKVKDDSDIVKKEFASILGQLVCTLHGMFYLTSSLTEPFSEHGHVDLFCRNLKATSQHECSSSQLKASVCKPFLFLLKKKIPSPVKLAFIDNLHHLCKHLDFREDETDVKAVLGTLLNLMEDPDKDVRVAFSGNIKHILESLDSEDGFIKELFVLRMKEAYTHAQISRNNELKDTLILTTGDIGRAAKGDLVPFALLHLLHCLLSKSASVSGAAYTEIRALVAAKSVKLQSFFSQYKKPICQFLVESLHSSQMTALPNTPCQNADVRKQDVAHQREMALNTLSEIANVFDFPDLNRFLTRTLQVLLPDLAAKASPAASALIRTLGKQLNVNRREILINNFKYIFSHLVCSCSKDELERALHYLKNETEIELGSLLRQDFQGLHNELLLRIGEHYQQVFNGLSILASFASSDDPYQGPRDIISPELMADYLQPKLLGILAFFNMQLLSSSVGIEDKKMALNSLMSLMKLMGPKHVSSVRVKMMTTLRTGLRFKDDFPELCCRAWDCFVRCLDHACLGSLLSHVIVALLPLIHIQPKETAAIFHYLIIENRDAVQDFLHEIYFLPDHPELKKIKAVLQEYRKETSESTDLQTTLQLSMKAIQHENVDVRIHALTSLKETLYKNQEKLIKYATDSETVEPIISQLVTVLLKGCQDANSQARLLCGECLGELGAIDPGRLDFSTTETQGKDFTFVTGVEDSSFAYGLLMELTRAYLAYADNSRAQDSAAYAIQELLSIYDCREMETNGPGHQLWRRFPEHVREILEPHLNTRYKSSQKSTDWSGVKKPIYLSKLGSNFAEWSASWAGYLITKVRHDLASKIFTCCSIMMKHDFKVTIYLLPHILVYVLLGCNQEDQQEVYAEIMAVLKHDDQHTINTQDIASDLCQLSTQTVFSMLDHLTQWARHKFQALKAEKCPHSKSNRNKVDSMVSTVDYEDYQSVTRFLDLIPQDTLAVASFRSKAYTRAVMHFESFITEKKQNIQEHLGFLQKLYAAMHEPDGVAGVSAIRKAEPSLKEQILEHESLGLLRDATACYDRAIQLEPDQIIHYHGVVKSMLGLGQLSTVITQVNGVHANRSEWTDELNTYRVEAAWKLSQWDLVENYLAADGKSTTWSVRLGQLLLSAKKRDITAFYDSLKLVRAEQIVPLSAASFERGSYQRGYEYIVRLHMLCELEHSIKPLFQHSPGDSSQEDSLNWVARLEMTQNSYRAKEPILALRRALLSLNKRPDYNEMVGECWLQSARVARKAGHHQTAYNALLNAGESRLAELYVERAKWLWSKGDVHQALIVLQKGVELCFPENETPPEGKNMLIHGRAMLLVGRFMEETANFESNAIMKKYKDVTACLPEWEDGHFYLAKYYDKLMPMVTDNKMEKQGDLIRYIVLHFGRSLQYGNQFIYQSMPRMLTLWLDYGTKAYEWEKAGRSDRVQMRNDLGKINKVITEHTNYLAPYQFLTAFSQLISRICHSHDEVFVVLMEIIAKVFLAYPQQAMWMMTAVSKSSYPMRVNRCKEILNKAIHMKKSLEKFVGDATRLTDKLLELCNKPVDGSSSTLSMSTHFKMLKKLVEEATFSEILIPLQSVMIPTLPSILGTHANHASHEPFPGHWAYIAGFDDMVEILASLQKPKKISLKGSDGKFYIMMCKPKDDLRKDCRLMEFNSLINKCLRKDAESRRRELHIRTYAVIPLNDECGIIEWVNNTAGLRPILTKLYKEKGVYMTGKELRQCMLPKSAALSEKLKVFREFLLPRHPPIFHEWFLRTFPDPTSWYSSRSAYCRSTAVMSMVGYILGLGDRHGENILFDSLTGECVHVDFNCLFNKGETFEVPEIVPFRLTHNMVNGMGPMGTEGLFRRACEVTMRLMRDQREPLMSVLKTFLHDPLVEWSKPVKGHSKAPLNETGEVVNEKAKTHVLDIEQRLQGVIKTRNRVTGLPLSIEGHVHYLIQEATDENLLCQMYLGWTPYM
Sequence of ATR/ATRIP(h) (Q8WXE1 whole entry partner): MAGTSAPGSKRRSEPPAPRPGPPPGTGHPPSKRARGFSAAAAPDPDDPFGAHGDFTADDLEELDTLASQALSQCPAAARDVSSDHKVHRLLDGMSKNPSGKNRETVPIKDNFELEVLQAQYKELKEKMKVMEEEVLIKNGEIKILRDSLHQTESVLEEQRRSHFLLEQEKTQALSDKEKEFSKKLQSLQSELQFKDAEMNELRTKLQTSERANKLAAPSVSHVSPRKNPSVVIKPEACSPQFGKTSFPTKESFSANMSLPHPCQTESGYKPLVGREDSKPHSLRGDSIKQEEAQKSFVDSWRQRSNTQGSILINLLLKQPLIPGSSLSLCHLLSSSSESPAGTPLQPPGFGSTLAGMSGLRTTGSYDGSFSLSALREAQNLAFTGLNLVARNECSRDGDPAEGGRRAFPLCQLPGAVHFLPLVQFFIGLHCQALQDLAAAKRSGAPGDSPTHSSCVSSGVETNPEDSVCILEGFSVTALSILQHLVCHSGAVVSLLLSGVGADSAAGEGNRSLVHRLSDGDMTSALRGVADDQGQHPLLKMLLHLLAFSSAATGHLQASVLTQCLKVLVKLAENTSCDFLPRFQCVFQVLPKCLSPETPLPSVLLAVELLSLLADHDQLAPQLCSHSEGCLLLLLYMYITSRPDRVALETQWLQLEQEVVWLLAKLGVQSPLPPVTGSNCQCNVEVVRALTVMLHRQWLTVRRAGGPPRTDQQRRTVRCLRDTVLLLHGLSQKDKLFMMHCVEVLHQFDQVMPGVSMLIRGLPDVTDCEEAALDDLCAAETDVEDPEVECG
Method: An EC50 determination was conducted for the supplied set of compounds against the kinase ATR/ATRIP(h), using a linear enzyme concentration in the Eurofins ATR/ATRIP HTRF assay using GST tagged full length p53 as the substrate.
ATR/ATRIP phosphorylation of p53 on Ser15 was measured via formation of an energy transfer complex consisting of a Europium-labelled anti-phospho Ser15 p53 antibody and an anti-GST-d2 antibody. All data points were performed in duplicate with DMSO controls and EDTA blanks.
ATR/ATRIP(h) was pre-diluted in 25 mM HEPES pH 8.0, 0.01% Brij-35, 1% Glycerol, 5 mM DTT, 1 mg/mL BSA and assayed in 25 mM HEPES pH 8.0, 0.01% Brij-35, 1% Glycerol, 10 mM MnCl2 using 30 nM GST, cMyc p53-(hu,FL) as the substrate. The reaction was initiated with the addition of ATP to a final concentration of 10 μM.
The individual replicates were expressed in terms of the % of the DMSO positive control activity. The mean activity (% control) of each inhibitor concentration was plotted against the inhibitor concentration, and EC50 values were determined using […] PRISM.
The data expressed as % control activity were plotted against inhibitor concentration, and fitted to a four parameter logistic using […] PRISM. Graphs for each compound are shown alongside the data in the accompanying Excel report.

H358 cells = assay: Cell death and growth assay, H358 cells; assay type: cell-based; conditions: set concentrations, in combination with Gemcitabine
Source text: In all cases, relative cell proliferation is reduced with the combinations compared to the drugs alone (FIG. 21B-C).

[2] = tested on: total and phospho-ATR (S428), phospho-CHK1 (S317 and S345) in DMS-114 cells; assay: Western blot of total and phospho-ATR, phospho-CHK1 in DMS-114 cells; assay type: cell-based
Method: Whole cell protein lysates were generated after 1, 3, 6 and 24 hours using a 2% SDS containing cell lysis buffer and stored at −80° C. until all samples were collected and run together at the same time for the WesternBlot analysis. The following proteins and phosphoproteins of interest were detected by antibodies purchased from Cell Signaling Technology (see methods and materials part below): total and phospho-ATR (S428), phospho-CHK1 (S317 and S345), γH2AX, beta-actin.
All target and phospho-specific antibodies were purchased from Cell Signaling and/or Epitomics and were used at 1:1000 dilutions. A list of all antibodies is available in Table 6. Standard antibody based Western blot and immunohistochemistry protocols were used. Briefly, 2% SDS based cell lysis buffer was used to collect whole cell lysate for Western Blotting. Secondary antibodies and staining protocols were purchased and followed regarding LiCor Biosciences and/or BD Bioscience.
Cells were grown and treated in a 6 cm dish scale. To harvest cells, medium was removed and quickly replaced by ice cold PBS. PBS was then replaced with 250 μL of 2% SDS lysis buffer. After five minutes of incubation, the lysed cells were scraped off and loaded onto a cell lysate homogenizer microcentrifuge spin-column (QIAshredder, Qiagen, Cat.-Nr. 79656). The filtrate was then loaded onto a 0.2 μm centrifugal filter column (Nanosep MF 0.2_m, Pall, Cat.-Nr. ODM02C34). The lysates were then stored at −80° C.

[3] = four parameter logistic fit of % control activity

SMILES: CN(C)CCC1CCN(CCS(=O)(=O)c2ccc(-c3cnc(N)c(C(=O)Nc4ccccc4)n3)cc2)CC1 [Compound 5, 3-amino-6-(4-((2-(4-(2-(dimethylamino)ethyl)piperidin-1-yl)ethyl)sulfonyl)phenyl)-N-phenylpyrazine-2-carboxamide]
- Loading efficiency (%) ([1]; TEA-SOS liposomes, Compound 1 at ratio before loading 379): 84 ± 8%
- Drug/lipid ratio after loading ([1]; TEA-SOS liposomes, input ratio before loading (Compound 1: 379)): 619 ± 110
- Liposome size, (mean ± SD) nm ([1]; liposomes loaded with the ATR inhibitor): 120 ± 29 nm
- EC50 (ATR/ATRIP(h)): 234 nM
- Hill (ATR/ATRIP(h); four parameter logistic fit): −0.819
- Bottom (ATR/ATRIP(h); [3]): 1
- Top (ATR/ATRIP(h); [3]): 95
- relative cell proliferation vs the drugs alone (H358 cells): reduced
- phosphorylation signal of CHK1 (S317 and S345) induced by Gemcitabine ([2]; ATR inhibitor 1 μM added to Gemcitabine 16 nM): abrogates the phosphorylation signal of CHK1
- total and phospho-ATR signal ([2]; ATR inhibitor 1 μM, alone or with Gemcitabine 16 nM, up to 24 hrs): strongly reduced
